≈ marks a conversion by molar mass, not a printed value. A value given as a limit tells only on which side of the number the result lay.

Some test systems named below: Escherichia coli 780; Escherichia coli 850; Bacillus thuringiensis; Proteus mirabilis.
Holding throughout (assay): ≥ marks a high value that may be exact or a test limit, other limits are often not marked, values filed in µg/mL are converted to µM
In assay [1] the test system is Acinetobacter baumannii ATCC BAA-747.
Assay [2] concerns Candida albicans ATCC 10231.
The test system of assay [3] is Candida albicans ATCC 2002.
In assay [4] the test system is Enterococcus faecium NTCC 12697.
In assay [5] the test system is Escherichia coli ATCC 25922.
Assay [6] deals with Escherichia coli ATCC 8739.
Assay [7] relates to Escherichia coli ATCC BAA-2340.
Assay [8] deals with Escherichia coli NCTC 13846.
The test system of assay [9] is Klebsiella pneumoniae ATCC 43816.
Assay [10] has as its system Pseudomonas aeruginosa ATCC 9027.
In assay [11] the test system is Pseudomonas aeruginosa CMCCB 10104.
Assay [12] relates to Staphylococcus aureus ATCC 25923.
Assay [13] relates to Staphylococcus aureus ATCC 6538.
Assay [14] deals with Staphylococcus aureus NCTC 12493.
In assay [15] the test system is Acinetobacter baumannii 1980.
In assay [16] the test system is Acinetobacter baumannii 2982.
Assay [17] deals with Acinetobacter baumannii 4956.
Assay [18] deals with Acinetobacter baumannii ATCC 19606.
Assay [19] deals with Acinetobacter baumannii I NM8.
Assay [20] relates to Escherichia coli ATCC 25726.
The test system of assay [21] is Klebsiella pneumoniae ATCC 700603.
For assay [22], the system named is Pseudomonas aeruginosa 2760.
In assay [23] the test system is Pseudomonas aeruginosa 9132.
Assay [24] concerns Pseudomonas aeruginosa ATCC 27853.
For assay [25], the system named is Staphylococcus aureus 725.
Assay [26] deals with Staphylococcus aureus 936.
The subject of assay [27] is Carnobacterium maltaromaticum UI49.
For assay [28], the system named is Lacticaseibacillus casei NCDO 2713.
Assay [29] has as its system Lacticaseibacillus casei subsp. casei NCDO 161.
Assay [30] deals with Lactiplantibacillus plantarum 965.
The subject of assay [31] is Lactiplantibacillus plantarum UI50.
For assay [32], the system named is Latilactobacillus curvatus 89.
Assay [33] concerns Latilactobacillus sakei 706.
The test system of assay [34] is Latilactobacillus sakei NCDO 2714.
Assay [35] concerns Pediococcus acidilactici CH.
Assay [36] relates to Pediococcus pentosaceus NCDO 990.
Assay [37] has as its system Pediococcus pentosaceus Pac1.0.
The subject of assay [38] is Weissella viridescens NCDO 1655.
Assay [39] deals with Bacillus subtilis CCT 2471.
Assay [40] deals with Enterobacter cloacae ATCC 23355.
Assay [41] has as its system Escherichia coli CCT 1371.
Assay [42] concerns Pseudomonas aeruginosa ATCC 15442.
Assay [43] concerns Staphylococcus epidermidis.
The subject of assay [44] is Staphylococcus saprophyticus.

Take `CC[C@H](C)[C@H](NC(=O)[C@H](CC(N)=O)NC(=O)[C@@H](NC(=O)[C@H](C)N)C(C)C)C(=O)N1CCC[C@H]1C(=O)N[C@@H](Cc1ccccc1)C(=O)N[C@@H](CCCCN)C(=O)N[C@H](C(=O)N[C@@H](Cc1cnc[nH]1)C(=O)N[C@@H](Cc1ccccc1)C(=O)N[C@@H](CCCN=C(N)N)C(=O)N[C@H]1CSSC[C@@H](C(=O)O)NC(=O)[C@H](Cc2ccccc2)NC(=O)[C@H](C)NC(=O)[C@H](C)NC(=O)[C@H](CCCCN)NC1=O)C(C)C` [AVNIPFKVHFRCKAAFC]: the MIC in [1] is not below 512 µM; in assay [2], more than 512 µM; in assay [3], 10.4 µM (≈ 20.2 µg/mL); in assay [4] it was not below 512 µM; in [5], 10.4 µM (≈ 20.2 µg/mL); in [6] it was not below 32 µM. For the same compound, the MIC in assay [7] was not below 32 µM; in assay [8], not below 32 µM; in [9], not below 64 µM; in assay [10], 64 µM (≈ 125 µg/mL); in assay [11], 20.7 µM (≈ 40.4 µg/mL); in assay [12] it was 5.18 µM (≈ 10.1 µg/mL). The MIC is more than 512 µM in assay [13] and not below 256 µM in [14].
For `CC(C)C[C@H](NC(=O)[C@@H](NC(=O)[C@H](CC(N)=O)NC(=O)[C@H](C)NC(=O)CNC(=O)[C@H](CC(C)C)NC(=O)[C@H](CCCN=C(N)N)NC(=O)[C@H](CC(C)C)NC(=O)[C@H](C)NC(=O)[C@H](CCCCN)NC(=O)CNC(=O)[C@H](CC(C)C)NC(=O)[C@H](CC(C)C)NC(=O)[C@H](CO)NC(=O)CNC(=O)[C@H](Cc1ccccc1)NC(=O)CN)C(C)C)C(N)=O` [GFGSLLGKALRLGANVL], the MIC came out at 9.49 µM (≈ 16 µg/mL) in assay [15]; 2.37 µM (≈ 4 µg/mL) in [16]; 9.49 µM (≈ 16 µg/mL) in [17]; 4.74 µM (≈ 8 µg/mL) in [18]; 3 µM (≈ 5.06 µg/mL) in [19]; 4.74 µM (≈ 8 µg/mL) against Escherichia coli 780. Moreover, the MIC in the assay on Escherichia coli 850 is 9.49 µM (≈ 16 µg/mL); in [20], 6 µM (≈ 10.1 µg/mL); in assay [5], 4.74 µM (≈ 8 µg/mL); in [21], 25 µM (≈ 42.1 µg/mL); in assay [22], not below 75.9 µM; in assay [23], not below 38 µM. Further, the MIC is 25 µM (≈ 42.1 µg/mL) in assay [24], 4.74 µM (≈ 8 µg/mL) in assay [25] and 19 µM (≈ 32 µg/mL) in [26].
Regarding `CC[C@H](C)[C@H](NC(=O)[C@H](C)NC(=O)[C@@H](NC(=O)[C@H](C)NC(=O)CNC(=O)[C@H](CCSC)NC(=O)[C@H](CCC(N)=O)NC(=O)[C@H](CC(C)C)NC(=O)[C@H](CO)NC(=O)[C@H](Cc1ccc(O)cc1)NC(=O)[C@H](C)NC(=O)[C@H](CO)NC(=O)[C@H](CO)NC(=O)[C@@H](N)CCCCN)[C@@H](C)O)C(=O)N[C@@H](CCCCN)C(=O)N[C@@H](CCC(N)=O)C(=O)N[C@H](C(=O)N[C@@H](CCCCN)C(=O)N[C@@H](CCCCN)C(=O)N[C@@H](CC(C)C)C(=O)N[C@@H](Cc1ccccc1)C(=O)N[C@@H](CCCCN)C(=O)N[C@@H](CCCCN)C(=O)N[C@@H](Cc1c[nH]c2ccccc12)C(=O)NCC(=O)N[C@@H](Cc1c[nH]c2ccccc12)C(=O)O)C(C)C` [KSSAYSLQMGATAIKQVKKLFKKWGW], the MIC in assay [27] was found to be 6 µM (≈ 17.9 µg/mL); in assay [28], 6 µM (≈ 17.9 µg/mL); in [29], 0.25 µM (≈ 0.746 µg/mL); in [30], 0.3 µM (≈ 0.896 µg/mL); in assay [31], 6 µM (≈ 17.9 µg/mL); in assay [32], 0.5 µM (≈ 1.49 µg/mL). Besides, the MIC in assay [33] is 0.5 µM (≈ 1.49 µg/mL); in assay [34], 0.06 µM (≈ 0.179 µg/mL); in assay [35], 0.5 µM (≈ 1.49 µg/mL); in assay [36], 6 µM (≈ 17.9 µg/mL); in [37], 0.1 µM (≈ 0.299 µg/mL); in [38], 0.02 µM (≈ 0.0597 µg/mL).
As to `CC[C@H](C)[C@H](NC(=O)CNC(=O)[C@H](CCCCN)NC(=O)[C@H](CC(C)C)NC(=O)[C@H](CC(N)=O)NC(=O)[C@@H](N)CC(C)C)C(=O)N[C@@H](Cc1ccccc1)C(=O)N[C@@H](CCCCN)C(=O)N[C@@H](CCCCN)C(=O)N[C@H](C(=O)N[C@@H](C)C(=O)N[C@@H](CO)C(=O)N[C@@H](CC(C)C)C(=O)N[C@@H](CC(C)C)C(=O)N[C@H](C(=O)O)[C@@H](C)O)C(C)C` [LNLKGIFKKVASLLT], the MIC in assay [39] is not below 60 µM; against Bacillus thuringiensis it was not below 60 µM; in [40] it was not below 60 µM; in [5], 6 µM (≈ 9.87 µg/mL); in [41], 6 µM (≈ 9.87 µg/mL); against Proteus mirabilis, not below 60 µM. The MIC is 30 µM (≈ 49.4 µg/mL) in assay [42]; 6 µM (≈ 9.87 µg/mL) in assay [12]; more than 60 µM in assay [13]; not below 60 µM in assay [43]; 6 µM (≈ 9.87 µg/mL) in [44].

Values taken from DBAASP.
